Tested on: NUGC
Test: Cytotoxicity against human NUGC cells at 50 uM
Assay type: functional

| SMILES | inhibition at 50 µM [%] |
| --- | --- |
| C=C1CC[C@@]2(OC1)O[C@H]1C[C@H]3[C@@H]4CC[C@]5(O)[C@@H](O)[C@@H](O)[C@@H](O)[C@@H](O)[C@]5(C)[C@H]4CC[C@]3(C)[C@H]1[C@@H]2C | 100 |
| C=CCc1ccc(O)c(O)c1 [HYDROXYCHAVICOL] | 96 |
| C=C1CC[C@@]2(OC1)O[C@H]1C[C@H]3[C@@H]4CC[C@]5(O)[C@@H](O)[C@@H](O)C[C@@H](O)[C@]5(C)[C@H]4CC[C@]3(C)[C@H]1[C@@H]2C [RANMOGENIN A] | 80 |
| C=C1CC[C@@]2(OC1)O[C@H]1C[C@H]3[C@@H]4CC[C@]5(O)C[C@@H](OC(C)=O)[C@@H](OC(C)=O)[C@@H](OC(C)=O)[C@]5(C)[C@H]4CC[C@]3(C)[C@H]1[C@@H]2C [TUPICHIGENIN AA] | 50 |
| C=C1CC[C@@]2(OC1)O[C@H]1C[C@H]3[C@@H]4CC[C@]5(O)C[C@@H](O)[C@@H](OC(C)=O)[C@@H](OC(C)=O)[C@]5(C)[C@H]4CC[C@]3(C)[C@H]1[C@@H]2C [TUPICHIGENIN AC] | 40 |
| C=C1CC[C@@]2(OC1)O[C@H]1C[C@H]3[C@@H]4CC[C@]5(O)C[C@@H](O)[C@@H](O)[C@@H](O)[C@]5(C)[C@H]4CC[C@]3(C)[C@H]1[C@@H]2C [TUPICHIGENIN A] | 42 |
| COc1ccc2c(c1C)O[C@H](c1ccc(O)cc1)[C@H](O)C2 [TUPICHINOL A] | 30 |
| CC(=O)C1=CC[C@H]2[C@@H]3CC=C4C[C@H](O)C[C@@H](O)[C@]4(C)[C@H]3CC[C@]12C [TUPIPREGNENOLONE] | 25 |

Tested on: not listed separately
Test: Cytotoxicity against human HONE1 cells at 50 uM
Assay type: functional

| SMILES | inhibition at 50 µM [%] |
| --- | --- |
| C=C1CC[C@@]2(OC1)O[C@H]1C[C@H]3[C@@H]4CC[C@]5(O)[C@@H](O)[C@@H](O)[C@@H](O)[C@@H](O)[C@]5(C)[C@H]4CC[C@]3(C)[C@H]1[C@@H]2C | 100 |
| C=C1CC[C@@]2(OC1)O[C@H]1C[C@H]3[C@@H]4CC=C5C[C@H](O)C[C@@H](O)[C@]5(C)[C@H]4CC[C@]3(C)[C@H]1[C@@H]2C | 45 |
| Oc1ccc([C@H]2CCc3ccc(O)cc3O2)cc1 [TUPICHINOL C] | 50 |
